{
  "source": "patent US20090203749A1",
  "about": "“AGENT FOR CONTROL OF DEGRANULATION REACTION AND CYTOKINE PRODUCTION” (RIKEN, priority 2005, published 2009)",
  "key": {"[1]": {"system": "bone marrow-derived mast cells", "test": "antigen stimulation-dependent chemical mediator (β-hexosaminidase) release (degranulation) from mast cells", "assay_type": "cell-based", "conditions": "TPEN 0, 2, 5 and 10 μM; IgE-sensitized mast cells stimulated with DNP-HSA for 30 minutes; FIG. 1", "description": "The mast cells used were bone marrow-derived mast cells whose differentiation was induced by culturing bone marrow cells with interleukin-3 for 5 weeks. The obtained bone marrow-derived mast cells (1×10^7 cells) were sensitized with 1 μg/mL IgE antibody (SPE-7 clone; available from SIGMA) for 6 hours. After sensitization, the cells were resuspended in Tyrode's buffer (pH 7.4). The composition of the Tyrode's buffer is as described in Table 1.\nThe obtained mast cell suspension was stimulated with an antigen (DNP-HSA; dinitrophenyl conjugated Human Serum Albumin; available from SIGMA) at each concentration (shown in FIG. 1) for 30 minutes. To investigate the effect of zinc ions, a zinc ion chelator TPEN (0, 2, 5 and 10 μM) was allowed to coexist with the cells for 2 hours during the sensitization period and for 30 minutes of the stimulation. Chemical mediator β-hexosaminidase released from the mast cells was measured. The activity of β-hexosaminidase was measured with an absorption spectrometer at wavelength of 405 nm by using 4-nitrophenyl N-acetyl-β-D-glucosaminide (available from SIGMA) as a substrate. The extracellular release of entire β-hexosaminidase present in the cell was defined as 100%."}, "[2]": {"system": "bone marrow-derived mast cells", "test": "restoration of TPEN effect on β-hexosaminidase release by enforced introduction of zinc ion", "assay_type": "cell-based", "conditions": "TPEN 10 μM; 1 μM pyrithione and zinc ions during DNP-HSA stimulation; FIG. 2", "description": "As mast cells sensitized with IgE antibody, the cells prepared in the same way as in Example 1 were used. After sensitization, the mast cells were resuspended in Tyrode's buffer. A zinc ion chelator TPEN (10 μM) was allowed to coexist with the cells for 2 hours during the sensitization period and for 30 minutes of the stimulation. To introduce zinc ions into the cells, the cells were treated with 1 μM pyrithione (Molecular probes, p-24193) during the stimulation, and zinc ions were added at each concentration (shown in FIG. 2) to Tyrode's buffer. The activity of β-hexosaminidase was measured in the same way as in Example 1. TPEN-untreated cells were used as a control, and the extracellular release of entire β-hexosaminidase present in the cell was defined as 100%."}, "[3]": {"system": "bone marrow-derived mast cells", "test": "cytokine production (IL-6 and TNF-α) of mast cells, ELISA", "assay_type": "cell-based", "conditions": "TPEN 0, 2, 5 and 10 μM; DNP-HSA 100 ng/ml for 6 hours; FIG. 3", "description": "As mast cells sensitized with IgE antibody, the cells prepared in the same way as described in Example 1 were used. After sensitization, the mast cells were resuspended in Tyrode's buffer. The mast cell suspension was stimulated with an antigen (DNP-HSA) at a concentration of 100 ng/ml for 6 hours. To investigate the effect of zinc ions, a zinc ion chelator TPEN (0, 2, 5 and 10 μM) was allowed to coexist with the cells for 2 hours during sensitization and for 6 hours of the stimulation.\nThe concentrations of cytokines (IL-6 and TNF-α) in the supernatant were determined using ELISA (BIOSOURCE)."}, "[4]": {"system": "passive cutaneous anaphylaxis", "test": "passive cutaneous anaphylaxis (type I allergy) model, Evans blue dye leakage", "assay_type": "in vivo", "conditions": "TPEN intraperitoneally 30 minutes before DNP-BSA challenge; mouse ear; FIG. 4", "description": "Mouse (6 week-old female, Balb/c Ajc1, CLEA Japan) was sensitized by subcutaneously administering 0.5 μg of IgE antibody (SPE-7, SIGMA) into the ear in order to induce passive cutaneous anaphylaxis. 30 minutes later, passive cutaneous anaphylaxis was induced by intravenous injection of 250 μg of antigen DNP-BSA (COSMOBIO) and 1.25 mg of Evans blue (SIGMA) into the tail of the mouse. In order to digitalize Evans blue dye leakage, the dye was extracted from the ear of the mouse using formamide. The extracted dye was measured by absorbance at wavelength of 620 nm. The amount of dye in each experiment was calculated from the analytical curve obtained by known amounts of Evans blue."}},
  "data": [
    {"smiles": "c1ccc(CN(CCN(Cc2ccccn2)Cc2ccccn2)Cc2ccccn2)nc1", "note": "[TPEN, N,N,N′,N′-tetrakis(2-pyridylmethyl)ethylenediamine]", "values": [
      {"measurement": "chemical mediator (β-hexosaminidase) release", "setting": "[1]", "value": "concentration-dependent suppressive effect"},
      {"measurement": "suppressive effect on the chemical mediator release after addition of zinc ions", "setting": "[2]", "value": "restored by the addition of the zinc ions"},
      {"measurement": "cytokine production (IL-6 and TNF-α in supernatant)", "setting": "[3]", "value": "dose dependent suppression"},
      {"measurement": "dye leakage of Evans blue", "setting": "[4]", "value": "suppressed dose-dependently"}
    ]}
  ]
}
